Experimental data from patent publication US20260357222A1, “GROWTH-BASED SELECTION PLATFORM FOR NONCANONICAL COFACTOR OXIDIZING ENZYMES” (The Regents of the University of California, priority 2022, published 2026).

T1: Lactobacillus pentosus NADH oxidase (Lp Nox) variant LP-3-EP (I158S-D177W-G178E-V240L-P362H-V395L), SEQ ID NO:7 (Lactiplantibacillus pentosus, UniProt A0A0U3FIG2, D177W/G178E/I158S/P362H/V240L/V395L)
T1 construct: variant LP-3-EP
T1 sequence (A0A0U3FIG2 1-450 I158S/D177W/G178E/V240L/P362H/V395L): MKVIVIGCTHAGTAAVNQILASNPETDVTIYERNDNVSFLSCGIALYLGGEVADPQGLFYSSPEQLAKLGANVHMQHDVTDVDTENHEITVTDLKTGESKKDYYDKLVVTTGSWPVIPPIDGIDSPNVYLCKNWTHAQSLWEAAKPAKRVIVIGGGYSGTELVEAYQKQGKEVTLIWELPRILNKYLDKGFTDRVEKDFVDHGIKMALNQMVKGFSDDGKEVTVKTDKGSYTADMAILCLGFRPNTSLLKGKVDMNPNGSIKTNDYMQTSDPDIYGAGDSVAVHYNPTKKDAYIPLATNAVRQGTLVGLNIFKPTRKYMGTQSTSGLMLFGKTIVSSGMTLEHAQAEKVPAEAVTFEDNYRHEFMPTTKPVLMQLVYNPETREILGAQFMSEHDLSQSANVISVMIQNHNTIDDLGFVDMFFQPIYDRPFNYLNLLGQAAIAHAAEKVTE

T2: Lactobacillus pentosus NADH oxidase (Lp Nox) variant LP-7 (I158S-D177W-V240L), SEQ ID NO:3 (Lactiplantibacillus pentosus, UniProt A0A0U3FIG2, D177W/I158S/V240L)
T2 construct: variant LP-7
T2 sequence (A0A0U3FIG2 1-450 I158S/D177W/V240L): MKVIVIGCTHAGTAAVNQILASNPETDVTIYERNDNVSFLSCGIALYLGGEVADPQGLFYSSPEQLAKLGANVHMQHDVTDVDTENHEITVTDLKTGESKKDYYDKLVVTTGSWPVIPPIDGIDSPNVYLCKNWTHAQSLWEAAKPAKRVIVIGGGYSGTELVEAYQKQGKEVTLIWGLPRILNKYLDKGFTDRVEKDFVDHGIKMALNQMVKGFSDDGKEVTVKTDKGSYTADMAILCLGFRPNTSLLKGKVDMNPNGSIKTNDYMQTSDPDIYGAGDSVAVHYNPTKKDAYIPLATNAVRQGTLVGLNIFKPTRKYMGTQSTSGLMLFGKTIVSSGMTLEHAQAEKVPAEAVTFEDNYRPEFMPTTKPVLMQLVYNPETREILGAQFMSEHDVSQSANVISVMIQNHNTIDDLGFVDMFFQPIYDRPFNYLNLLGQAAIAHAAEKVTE

T3: Lactobacillus pentosus NADH oxidase (Lp Nox) variant LP-3 (I158S-D177W-G178E-V240L), SEQ ID NO:6 (Lactiplantibacillus pentosus, UniProt A0A0U3FIG2, D177W/G178E/I158S/V240L)
T3 construct: variant LP-3
T3 sequence (A0A0U3FIG2 1-450 I158S/D177W/G178E/V240L): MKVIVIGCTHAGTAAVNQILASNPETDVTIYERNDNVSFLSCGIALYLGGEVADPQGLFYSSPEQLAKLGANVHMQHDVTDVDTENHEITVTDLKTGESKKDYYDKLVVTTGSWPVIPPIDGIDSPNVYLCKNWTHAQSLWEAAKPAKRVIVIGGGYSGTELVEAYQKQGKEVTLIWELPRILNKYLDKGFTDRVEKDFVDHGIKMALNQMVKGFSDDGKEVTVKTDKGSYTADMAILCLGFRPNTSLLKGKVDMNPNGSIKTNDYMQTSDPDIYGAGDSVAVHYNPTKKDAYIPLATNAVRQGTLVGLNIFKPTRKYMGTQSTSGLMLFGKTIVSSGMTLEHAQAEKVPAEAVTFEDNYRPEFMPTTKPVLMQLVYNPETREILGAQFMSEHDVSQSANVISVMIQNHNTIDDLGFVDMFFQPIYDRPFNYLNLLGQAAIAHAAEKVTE

T4: Lactobacillus pentosus NADH oxidase (Lp Nox), wild type, SEQ ID NO:1 (Lactiplantibacillus pentosus, UniProt A0A0U3FIG2)
T4 sequence (A0A0U3FIG2 1-450): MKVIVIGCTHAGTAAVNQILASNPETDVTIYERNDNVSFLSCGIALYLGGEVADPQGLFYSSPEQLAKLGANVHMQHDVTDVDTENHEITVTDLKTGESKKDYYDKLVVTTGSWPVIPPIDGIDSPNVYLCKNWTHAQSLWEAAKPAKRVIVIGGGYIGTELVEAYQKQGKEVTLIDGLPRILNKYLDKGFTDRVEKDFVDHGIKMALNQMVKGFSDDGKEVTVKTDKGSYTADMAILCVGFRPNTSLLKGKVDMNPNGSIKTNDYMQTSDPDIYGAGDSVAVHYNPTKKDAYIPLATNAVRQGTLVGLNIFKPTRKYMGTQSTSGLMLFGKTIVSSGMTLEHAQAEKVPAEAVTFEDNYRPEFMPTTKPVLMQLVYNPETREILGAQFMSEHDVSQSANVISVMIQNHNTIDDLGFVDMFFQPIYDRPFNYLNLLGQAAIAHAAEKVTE

B1: Lactobacillus pentosus NADH oxidase (Lp Nox), wild type, SEQ ID NO:1 (Lactiplantibacillus pentosus) (protein)
chain: MKVIVIGCTHAGTAAVNQILASNPETDVTIYERNDNVSFLSCGIALYLGGEVADPQGLFYSSPEQLAKLGANVHMQHDVTDVDTENHEITVTDLKTGESKKDYYDKLVVTTGSWPVIPPIDGIDSPNVYLCKNWTHAQSLWEAAKPAKRVIVIGGGYIGTELVEAYQKQGKEVTLIDGLPRILNKYLDKGFTDRVEKDFVDHGIKMALNQMVKGFSDDGKEVTVKTDKGSYTADMAILCVGFRPNTSLLKGKVDMNPNGSIKTNDYMQTSDPDIYGAGDSVAVHYNPTKKDAYIPLATNAVRQGTLVGLNIFKPTRKYMGTQSTSGLMLFGKTIVSSGMTLEHAQAEKVPAEAVTFEDNYRPEFMPTTKPVLMQLVYNPETREILGAQFMSEHDVSQSANVISVMIQNHNTIDDLGFVDMFFQPIYDRPFNYLNLLGQAAIAHAAEKVTE

Legend:
[1] = target: T1, Lactobacillus pentosus NADH oxidase (Lp Nox) variant LP-3-EP (I158S-D177W-G178E-V240L-P362H-V395L), SEQ ID NO:7; assay: Lp Nox enzymatic kinetics, cofactor oxidation at 340 nm, variant LP-3-EP; type: biochemical; settings: role: cofactor
Protocol: (§1) Protein Expression and Purification. Lp Nox wild type or variants (see Table 1) are expressed with E. coli BL21 (DE3) with plasmids inoculated in 2× YT media with 200 mg L^−1 ampicillin. Expression was carried out by inoculation of 20 mL 2× YT media supplied with antibiotics and an overnight culture incubated at 30 °C, 250 RPM with an OD600nm of 0.072. Cells were grown at 37 °C in 50 mL conical tubes, and the cultures were induced with 0.5 mM IPTG at an OD600nm of 0.6-1.0. The 20 mL culture was then incubated at 27 °C and 250 RPM for 24 h. After 24 h, cells were harvested for protein extraction (centrifugation at 4 °C, 3000 RPM, 20 min). Cell pellets were resuspended in Zymo His-Binding buffer (Zymo Research Corporation) supplied with 0.15 mM FAD, 1 μL/mL DNase (Sigma Aldrich) and 1 mM InSolution [COMPOUND LEFT OUT] (Sigma Aldrich). The resuspended cell mixture was added to 0.5 mL of 0.1 mm glass beads (Biospec) and homogenized using a benchtop homogenizer (MP Biomedicals). Cell debris was separated from the crude extract by centrifugation at 4 °C and 15,000 RPM for 5 min. Protein purification was performed using His-Spin Protein Miniprep (Zymo Research Corporation) according to the manufacturer's instructions. The concentrations of purified protein were quantified by a Bradford assay using BSA as a standard. Purified protein was stored in aliquots with 20% (v/v) glycerol at −80 °C.
(§2) NMNH generation. NMNH generation was performed in 20 mL reaction volumes in a 50 ml conical tube containing 200 mM Tris-Cl at pH 8.0, 100 mM sodium chloride, 3 mM potassium chloride, 200 mM glucose, and 20 m MNMN^+. The reaction was initiating by spiking 500 ng of purified Bacillus subtilis glucose dehydrogenase I195R8. The reaction was incubated at 30 °C until reaction progression stopped, approximately 6 h. Reaction progression was monitored by observing the increase in light absorption at 340 nm, corresponding to the reduction of NMN^+ to NMNH. Then, the solution was filtered through a 15 kD cutoff filter to remove the protein. To purify the NMNH, the flowthrough was mixed with HPLC-grade acetonitrile to a final concentration of 70% acetonitrile, and the solution was passed through a Phenomenex Strata NH2 (2 g/12 mL, 55 μm, 70 Å) solid phase extraction column. The column was washed twice with 4 mL of 70:30 acetonitrile:water, then twice with 4 mL of 50:50 acetonitrile:water, twice with 4 mL of 30:70 acetonitrile:water, twice with 4 mL of nanopurified water, and finally twice with 4 mL of methanol. To elute the NMNH from the column, 2 mL of a solution containing 50:50 ammonium hydroxide:methanol was added to the column and incubated for 3 minutes before eluting. The elution step was repeated until no NMNH remained in the flow through, as monitored by light absorption at 340 nm. The elution fractions containing NMNH were pooled and aliquoted in 1 mL volumes into clean tubes. The solutions were dried over air and stored at −80 °C until use.
(§3) Lp Nox Enzymatic Assays and Kinetic study with NMNH, NAD(P) H. The Lp Nox activity (see FIG. 4A) was determined by the change in light absorption at 340 nm at 37 °C in 50 mM Tris-Cl buffer pH 7.0. The reactions were started by adding the purified protein to the prewarmed 37 °C assay mixture containing 0.3 mM of respective cofactor. The absorbance change at 340 nm for NAD(P) H and NMNH was detected using a SpectraMax M3 microplate reader. For kinetics parameter determination (see Table 2), cofactor concentrations were varied from 0 to 2 mM and the results were fitted to the standard Michaelis-Menten equation or Lineweaver-Burk equation to acquire catalytic efficiencies (kcat/Km) when the cofactor concentration tested could not saturate the enzyme activity or during the presence of substrate inhibition. Cofactor concentration over 2 mM could not be measured accurately on M3 spectrometer due to detector absorbance saturation at 340 nm.

[2] = target: T2, Lactobacillus pentosus NADH oxidase (Lp Nox) variant LP-7 (I158S-D177W-V240L), SEQ ID NO:3; assay: Lp Nox enzymatic kinetics, cofactor oxidation at 340 nm, variant LP-7; type: biochemical; settings: role: cofactor
Protocol: as §1, §2, §3

[3] = target: T3, Lactobacillus pentosus NADH oxidase (Lp Nox) variant LP-3 (I158S-D177W-G178E-V240L), SEQ ID NO:6; assay: Lp Nox enzymatic kinetics, cofactor oxidation at 340 nm, variant LP-3; type: biochemical; settings: role: cofactor; 50 mM Tris-HCl pH 7.0, 37 °C; enzyme could not be saturated with the cofactor concentrations tested
Protocol: as §1, §2, §3

[4] = target: T4, Lactobacillus pentosus NADH oxidase (Lp Nox), wild type, SEQ ID NO:1; assay: Lp Nox enzymatic kinetics, cofactor oxidation at 340 nm, wild type; type: biochemical; settings: role: cofactor; 50 mM Tris-HCl pH 7.0, 37 °C; enzyme could not be saturated with the cofactor concentrations tested
Protocol: as §1
NMNH generation. NMNH generation was performed in 20 mL reaction volumes in a 50 ml conical tube containing 200 mM Tris-Cl at pH 8.0, 100 mM sodium chloride, 3 mM potassium chloride, 200 mM glucose, and 20 m MNMN^+. The reaction was initiating by spiking 500 ng of purified Bacillus subtilis glucose dehydrogenase I195R8. The reaction was incubated at 30 °C until reaction progression stopped, approximately 6 h. Reaction progression was monitored by observing the increase in light absorption at 340 nm, corresponding to the reduction of NMN^+ to NMNH. Then, the solution was filtered through a 15 kD cutoff filter to remove the protein. […] The elution step was repeated until no NMNH remained in the flow through, as monitored by light absorption at 340 nm. […]
(§4) Lp Nox Enzymatic Assays and Kinetic study with NMNH, NAD(P) H. The Lp Nox activity (see FIG. 4A) was determined by the change in light absorption at 340 nm at 37 °C in 50 mM Tris-Cl buffer pH 7.0. […] The absorbance change at 340 nm for NAD(P) H and NMNH was detected using a SpectraMax M3 microplate reader. […] Cofactor concentration over 2 mM could not be measured accurately on M3 spectrometer due to detector absorbance saturation at 340 nm.

[5] = substrate: NC(=O)C1=CN([C@@H]2O[C@H](COP(=O)(O)OP(=O)(O)OC[C@H]3O[C@@H](n4cnc5c(N)ncnc54)[C@H](O)[C@@H]3O)[C@@H](O)[C@H]2O)C=CC1; assay: as above; type: biochemical, Lactobacillus pentosus; settings: other: role: cofactor, apparent, 50 mM Tris-HCl pH 7.0, 37 °C, cofactor 0 to 2 mM
Protocol: as §1, with “Purified protein was stored in aliquots with 20% (v/v) glycerol at −80 °C.” left out
NMNH generation. […] Reaction progression was monitored by observing the increase in light absorption at 340 nm, corresponding to the reduction of NMN^+ to NMNH. […] The elution step was repeated until no NMNH remained in the flow through, as monitored by light absorption at 340 nm. […]
as §4

[6] = 50 mM Tris-HCl pH 7.0, 37 °C, enzyme could not be saturated with the cofactor concentrations tested

Molecule	kcat/Km (catalytic efficiency for NMNH) [1, 6]	inhibition effect when NMNH was utilized ([1]; NMNH as cofactor)	gain of catalytic efficiency for NMNH from LP 3 ([1]; ratio of kcat/Km to LP 3)	increase of catalytic efficiency for NMNH from the wild type ([1]; ratio of kcat/Km to wild type)	kcat/Km (catalytic efficiency for NMNH) [2, 6]	increase of catalytic efficiency for NMNH from the wild type ([2]; ratio of kcat/Km to wild type)	kcat/Km (catalytic efficiency for NMNH) [3]	kcat/Km (catalytic efficiency for NMNH) [4]	Km [5]	kcat [5]	kcat/Km [5]
NC(=O)C1=CN([C@@H]2O[C@H](COP(=O)(O)O)[C@@H](O)[C@H]2O)C=CC1 [NMNH, nicotinamide mononucleotide]	23 ± 1 mM⁻¹ s⁻¹	not seen	~ 2.5 fold	~ 10 fold	18 ± 1 mM⁻¹ s⁻¹	~ 8 fold	10 ± 1 mM⁻¹ s⁻¹	2.3 ± 0.1 mM⁻¹ s⁻¹	–	–	–
B1	–	–	–	–	–	–	–	–	0.024 ± 0.005 mM	21 ± 1 s⁻¹	844 ± 4 mM⁻¹ s⁻¹
